Tests used:
NB7 (Neuroblastoma) [1] = test: combination Emax (second highest fraction inhibited in the dose matrix, 72 h); higher = more inhibition; extreme values may be limits of the assay
In short: (§1)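 After 24 hours at 37°C and 5% CO2 in 1536-well plates, cells in DMEM/F12 or RPMI plus 10% FBS received two-drug dose matrices for 72 hours. Viability came from CellTiter-Glo 2.0 luminescence and was scaled as inhibition, anchored at 0 by vehicle wells and at 1 by blank wells. Combination Emax is taken as the second-highest inhibition in the matrix, and Bliss excess as the observed combination effect less EA + EB − EA·EB, with EA and EB the single-agent effects.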

[2] = test system: NCI-N87 (Gastric Carcinoma); test: as above
In short: as §1

[3] = test system: JHH-7 (Hepatocellular Carcinoma); test: as above
In short: as §1

[4] = test system: H-EMC-SS (Chondrosarcoma); test: as above
In short: as §1

[5] = test system: LC4-1 (B-Lymphoblastic Leukemia); test: as above
In short: as §1

[6] = test system: TGBC11TKB (Gastric Carcinoma); test: as above
In short: as §1

EW-3 (Ewing's Sarcoma) [7] = test: as above
In short: as §1

[8] = test system: VMRC-LCD (Lung Adenocarcinoma); test: as above
In short: as §1

[9] = test system: KINGS-1 (Low Grade Glioma); test: as above
In short: as §1

[10] = test system: OCUM-1 (Gastric Carcinoma); test: as above
In short: as §1

GI-1 (Glioblastoma) [11] = test: as above
In short: as §1

[12] = test system: OCUB-M (Breast Carcinoma); test: as above
In short: as §1

[13] = test system: HSC-2 (Oral Cavity Carcinoma); test: as above
In short: as §1

[14] = test system: SCC-9 (Oral Cavity Carcinoma); test: as above
In short: as §1

[15] = test system: SNU-C1 (Colorectal Carcinoma); test: as above
In short: as §1

NB7 (Neuroblastoma) [16] = test: Bliss excess, mean over the matrix (fraction); higher = more synergy
In short: as §1

[17] = test system: NCI-N87 (Gastric Carcinoma); test: as above
In short: as §1

[18] = test system: JHH-7 (Hepatocellular Carcinoma); test: as above
In short: as §1

[19] = test system: H-EMC-SS (Chondrosarcoma); test: as above
In short: as §1

[20] = test system: LC4-1 (B-Lymphoblastic Leukemia); test: as above
In short: as §1

[21] = test system: TGBC11TKB (Gastric Carcinoma); test: as above
In short: as §1

EW-3 (Ewing's Sarcoma) [22] = test: as above
In short: as §1

[23] = test system: VMRC-LCD (Lung Adenocarcinoma); test: as above
In short: as §1

[24] = test system: KINGS-1 (Low Grade Glioma); test: as above
In short: as §1

[25] = test system: OCUM-1 (Gastric Carcinoma); test: as above
In short: as §1

GI-1 (Glioblastoma) [26] = test: as above
In short: as §1

[27] = test system: OCUB-M (Breast Carcinoma); test: as above
In short: as §1

[28] = test system: HSC-2 (Oral Cavity Carcinoma); test: as above
In short: as §1

[29] = test system: SCC-9 (Oral Cavity Carcinoma); test: as above
In short: as §1

[30] = test system: SNU-C1 (Colorectal Carcinoma); test: as above
In short: as §1
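For Bliss excess, mean over the matrix in this document: after 72 h of two-drug dosing.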

Structure (SMILES)	combination Emax (NB7 (Neuroblastoma) [1])	combination Emax [2]	combination Emax [3]	combination Emax [4]	combination Emax [5]	combination Emax [6]	combination Emax (EW-3 (Ewing's Sarcoma) [7])	combination Emax [8]	combination Emax [9]	combination Emax [10]	combination Emax (GI-1 (Glioblastoma) [11])	combination Emax [12]	combination Emax [13]	combination Emax [14]	combination Emax [15]	Bliss excess (NB7 (Neuroblastoma) [16])	Bliss excess [17]	Bliss excess [18]	Bliss excess [19]	Bliss excess [20]	Bliss excess [21]	Bliss excess (EW-3 (Ewing's Sarcoma) [22])	Bliss excess [23]	Bliss excess [24]	Bliss excess [25]	Bliss excess (GI-1 (Glioblastoma) [26])	Bliss excess [27]	Bliss excess [28]	Bliss excess [29]	Bliss excess [30]
O=C(c1cc(Cc2n[nH]c(=O)c3ccccc23)ccc1F)N1CCN(C(=O)C2CC2)CC1 [Olaparib] + COc1nnc2ccc(N3CCC(c4ccc(OCCN5CCN(C)C(=O)[C@H]5C)cc4)CC3)nn12 [AZD5153] (first compound max 10 µM, 7x7, partner max 1 µM)	0.359	0.528	0.237	0.218	0.899	0.284	0.842	0.35	0.0844	0.488	0.738	0.384	0.563	0.288	0.524	-0.0339	-0.019	-0.0336	-0.0456	-0.115	-0.0543	-0.0528	-0.0707	-0.0773	-0.0755	0.0092	-0.0609	-0.0679	-0.0418	-0.0531
O=C(c1cc(Cc2n[nH]c(=O)c3ccccc23)ccc1F)N1CCN(C(=O)C2CC2)CC1 [Olaparib] + CN(CC[C@H](CSC1=CC=CC=C1)NC2=C(C=C(C=C2)S(=O)(=O)NC(=O)C3=CC=C(C=C3)N4CCC(CC4)[C@H](C5=CC=CC=C5C6=CC=C(C=C6)Cl)O)S(=O)(=O)C(F)(F)F)CCO [AZD4320] (first compound max 10 µM, 7x7, partner max 1 µM)	0.393	0.503	0.203	0.422	1	0.42	0.904	0.114	0.646	0.834	0.302	0.454	0.201	0.398	0.613	-0.0251	-0.0729	-0.0326	0.0051	0.0153	0.0082	0.0125	-0.029	-0.0792	0.0129	0.0255	-0.0115	0.0039	-0.0395	-0.055
C[C@@H]1COCCN1c1cc(C2([S@](C)(=N)=O)CC2)nc(-c2ccnc3[nH]ccc23)n1 [AZD6738] + C1CC(C1)(C(=O)[O-])C(=O)[O-].N.N.[Pt+2] [Carboplatin] (first compound max 10 µM, 7x7, partner max 10 µM)	0.508	0.71	0.292	0.344	0.896	0.653	0.77	0.697	0.187	0.647	0.843	0.417	0.598	0.293	0.408	-0.0115	-0.0332	-0.0368	-0.0251	-0.0504	-0.0618	0.0061	-0.0159	-0.0713	-0.0496	0.0044	-0.0165	0.0029	-0.0334	-0.0744
C=CCn1c(=O)c2cnc(Nc3ccc(N4CCN(C)CC4)cc3)nc2n1-c1cccc(C(C)(C)O)n1 [AZD1775] + CCc1c2c(nc3ccc(O)cc13)-c1cc3c(c(=O)n1C2)COC(=O)[C@]3(O)CC [SN-38] (first compound max 1 µM, partner max 0.3 µM)	0.97	0.8	0.43	0.561	0.934	0.914	0.872	0.591	0.495	0.65	0.988	0.931	0.952	0.557	0.646	0.0564	-0.0855	0.0117	-0.0137	-0.0519	-0.0338	-0.135	-0.126	-0.0275	-0.0758	-0.0412	0.0926	-0.0298	-0.0365	-0.0837
Cc1nc(-c2cn3c(n2)-c2ccc(-c4cnn(C(C)(C)C(N)=O)c4)cc2OCC3)n(C(C)C)n1 [Taselisib] + O=C(Nc1ccc2[nH]nc(-c3ccncc3)c2c1)[C@@H]1CCN(CC(=O)N2CCN(c3ccc(-c4ncccn4)cc3)CC2)C1 [SCH772984] (first compound max 10 µM, 7x7, partner max 5 µM)	0.264	0.947	0.526	0.927	0.588	0.765	0.608	0.149	0.749	0.983	0.732	1	0.994	0.959	0.932	-0.0014	0.0215	0.0389	0.156	0.0661	0.177	0.0884	-0.0342	0.139	0.016	0.111	0.0341	0.0341	0.151	0.108
O=C(c1cc(Cc2n[nH]c(=O)c3ccccc23)ccc1F)N1CCN(C(=O)C2CC2)CC1 [Olaparib] + Cc1c2c(nn1C)CSCc1cc(n(C)n1)CSc1cc(c3ccccc3c1)OCCCc1c(C(=O)O)n(C)c3c-2c(Cl)ccc13 [AZD5991] (first compound max 10 µM, 7x7, partner max 1 µM)	0.595	0.203	0.0758	0.129	0.955	0.509	0.869	0.111	0.0927	0.0756	0.51	0.924	0.88	0.154	0.362	-0.0154	-0.0285	-0.0457	-0.0401	-0.0181	0.0015	-0.0215	-0.0349	-0.0514	-0.0497	0.0065	-0.0142	-0.0082	-0.0478	-0.0155
CN(CCO)CC[C@H](CSc1ccccc1)Nc1ccc(S(=O)(=O)NC(=O)c2ccc(N3CCC([C@@H](O)c4ccccc4-c4ccc(Cl)cc4)CC3)cc2)cc1S(=O)(=O)C(F)(F)F [AZD4320] + CC(=O)O[C@H]1C(=O)[C@@]2(C)[C@H]([C@H](OC(=O)c3ccccc3)[C@]3(O)C[C@H](OC(=O)[C@H](O)[C@@H](NC(=O)c4ccccc4)c4ccccc4)C(C)=C1C3(C)C)[C@]1(OC(C)=O)CO[C@@H]1C[C@@H]2O [Paclitaxel] (first compound max 1 µM, 7x7, partner max 3 µM)	0.94	0.921	0.951	0.672	1	0.994	0.961	0.918	0.966	0.955	1	1	1	0.745	0.829	0.131	0.182	0.144	0.0785	0.0047	0.0373	0.0269	0.0035	0.18	0.0074	0.0374	0.0811	0.0087	0.109	0.179
Cc1cc2ncnn2cc1Nc1ncc2c(n1)n(C1CCOCC1)c(=O)n2C [AZD7648] + COc1cc([C@@H]2c3cc4c(cc3[C@@H](O[C@@H]3O[C@@H]5CO[C@@H](C)O[C@H]5[C@H](O)[C@H]3O)[C@H]3COC(=O)[C@H]23)OCO4)cc(OC)c1O [Etoposide] (first compound max 10 µM, 7x7, partner max 10 µM)	0.909	0.697	0.642	0.524	1	0.0573	0.855	0.555	0.516	0.557	0.907	0.885	0.866	0.481	0.275	0.0544	-0.0062	0.0547	0.0506	0.0856	-0.0517	0.0762	0.171	0.061	0.0899	0.0946	0.0176	0.128	0.006	-0.0254

From the supplement of paper PMC11061612
